# Reference: US10774051B2, “6-membered heterocyclic derivatives and pharmaceutical composition comprising the same” (Shionogi & Co., Ltd., priority 2015, dated 2020)
# pIC50: −log10 of the molar value.
# Target: human P2X7 receptor (Homo sapiens, UniProt Q99572, R270H/Y155H)
# Assay: Evaluation of human P2X7 receptor inhibitory activity (Yo-Pro uptake, BzATP stimulation, FLIPR TETRA)
# Type: cell-based
# Details: 1321N1 cells stably expressing human P2X7 receptor; BzATP stimulation, Yo-Pro uptake; read-out: IC50 (antagonistic activity for the human P2X7 receptor)
# Description: Stably expressing cell line (1321N1 cell transfected with the human P2X7 receptor gene (GenBank accession number NM_002562.5 including T606C and G952A SNP)) was used. The cells were seeded in a 384-well microtiter plate at a concentration of 8000 cells/well and cultured in the medium (10% fetal bovine serum, 25 mM HEPES, 1% penicillin and streptomycin in DMEM) for one day at 37° C. under 5% carbon dioxide atmosphere. After replacing with 20 μL of the HBSS buffer (20 mM HEPES, 55.6 mM D-glucose, 1×HBSS(−), pH7.4-7.5), 15 μL of 17.3 μM Yo-Pro solution in the HBSS buffer was added. The plate was placed in high-throughput cellular screening system FLIPR TETRA (Molecullar Devices, LLC.) and 15 μL of 130 μM BzATP solution in the HBSS buffer was added. Measurement of fluorescence intensity by FLIPR TETRA was started. After eight minutes, 15 μL of DMSO solutions containing different concentrations of the compound of the present invention as prepared by dilution with the HBSS buffer were dispensed to each well through the built-in automatic dispenser, and the measurement of fluorescence intensity was continued for 20 minutes. […] Changing values of fluorescence intensity by the compound of the present invention were calculated by difference between maximum and minimum fluorescence intensity for 20 minutes. Inhibition ratios (%) were calculated from the following equation:
# [formula] IC50 was calculated using logistic approximation.
row,SMILES,pIC50
1,COc1cn(Cc2ccccc2)c(Nc2cncc(Cl)c2C)nc1=O [Compound I-0185],6.57
2,CCc1cc2c(cc1Nc1nc(=O)c(OC)cn1Cc1ccc(Cl)cc1)CCC2 [Compound I-0195],7.59
3,CCOc1cc(C)c(Nc2nc(=O)c(OC)cn2Cc2cc(F)cc(Cl)c2)cc1C [Compound I-0384],8.00
4,COc1cn(Cc2ccsc2)c(Nc2cc(C)c(C)cc2C)nc1=O [Compound I-0738],8.52
5,COc1cn(Cc2ccc(F)c(Cl)c2)c(Nc2cc(C#N)ccc2C)cc1=O [Compound I-0957],6.96
6,COc1ccc(C)c(Nc2nc(=O)c(OC)cn2Cc2ccc(F)c(F)c2)c1 [Compound I-0407],8.22

# Same assay, conditions: 1321N1 cells stably expressing human P2X7 receptor; BzATP stimulation, Yo-Pro uptake; read-out: IC50 (antagonistic activity for the human P2X7 receptor), class symbol
row,SMILES,pIC50
1,COc1cn(Cc2ccccc2)c(Nc2cc(Cl)c(Cl)cc2C)nc1=O [Compound I-0448],7.00 to 8.00
2,COc1cn(Cc2ccccc2)c(Nc2cc(Cl)c(Cl)cc2C)nc1=O [Compound I-0464],> 8.00
3,COc1cn(Cc2ccccc2)c(Nc2cccc3occc23)nc1=O [Compound I-0103],6.30 to 7.00
4,CCc1ccccc1Nc1nc(=O)c(F)cn1Cc1ccccc1 [Compound I-0157],7.00 to 8.00
5,CCc1ccccc1Nc1nc(=O)c(OC)cn1Cc1ccccc1 [Compound I-0084],7.00 to 8.00
6,COc1cc(C)cc(Nc2nc(=O)c(OC)cn2Cc2cccc(Cl)c2)c1C [Compound I-0428],> 8.00
7,COc1cn(Cc2ccccc2)c(Nc2cc(SC(F)(F)F)ccc2C)nc1=O [Compound I-0512],6.30 to 7.00
8,COc1cc(C)c(Nc2nc(=O)c(OC)cn2Cc2cccc(Cl)c2)cc1C [Compound I-0250],> 8.00
9,COc1cn(Cc2cc(F)cc(F)c2)c(Nc2cc(C)c(C)cc2C)nc1=O [Compound I-0377],> 8.00
10,COc1cn(Cc2ccccc2Cl)c(Nc2cc(C)c(C)cc2C)nc1=O [Compound I-0192],7.00 to 8.00
11,COc1cn(Cc2ccccc2)c(Nc2cccc(C)c2C)nc1=O [Compound I-0095],7.00 to 8.00
12,COc1cn(Cc2cc(F)cc(Cl)c2)c(Nc2cccc(OC(F)F)c2C)nc1=O [Compound I-0576],7.00 to 8.00
13,COc1cn(Cc2cccc(Cl)c2)c(Nc2cccc(C)c2Cl)nc1=O [Compound I-0481],7.00 to 8.00
14,COc1cn(Cc2ccccc2)c(Nc2ccccc2C)nc1=O [Compound I-0061],6.00 to 6.30
15,CCc1cc(OC)ccc1Nc1nc(=O)c(OC)cn1Cc1cc(F)cc(F)c1 [Compound I-0440],> 8.00
16,CCOc1cc(C)c(Nc2nc(=O)c(OC)cn2Cc2cc(F)cc(F)c2)cc1C [Compound I-0383],> 8.00
17,CCc1c(Nc2nc(=O)c(F)cn2Cc2cccc(Cl)c2)cc(OC)cc1OC [Compound I-0315],> 8.00
18,COc1ccc(C)c(Nc2nc(=O)c(OC)cn2Cc2cc(F)cc(Cl)c2)c1 [Compound I-0409],7.00 to 8.00
19,COC(=O)c1cccc(Nc2nc(=O)c(OC)cn2Cc2ccccc2)c1C [Compound I-0088],6.30 to 7.00
20,COc1cc(C)c(Nc2nc(=O)c(Cl)cn2Cc2ccc(F)c(Cl)c2)cc1OC [Compound I-0345],> 8.00
21,COc1cn(Cc2ccc(F)c(F)c2)c(Nc2cccc(C(F)(F)F)c2C)nc1=O [Compound I-0467],> 8.00
22,Cc1c(Cl)cccc1Nc1nc(=O)c(C)cn1Cc1ccccc1 [Compound I-0012],7.00 to 8.00
23,COc1cn(Cc2ccccc2COC(F)F)c(Nc2cccc(Cl)c2C)nc1=O [Compound I-0475],> 8.00
24,COc1cn(Cc2ccc(F)c(Cl)c2)c(Nc2ccc(N(C)C)cc2C)nc1=O [Compound I-0248],7.00 to 8.00
25,COc1cn(Cc2ccccc2)c(Nc2cc(N3CCCC3=O)ccc2C)nc1=O [Compound I-0393],7.00 to 8.00
26,COc1cn(Cc2ccccc2)c(Nc2ccccc2C(F)(F)F)nc1=O [Compound I-0089],6.00 to 6.30
27,COc1cn(Cc2ccc(F)c(Cl)c2)c(Nc2cc(C)cc3[nH]ccc23)nc1=O [Compound I-0396],> 8.00
28,COCc1cccc(Nc2nc(=O)c(OC)cn2Cc2ccccc2)c1C [Compound I-0352],6.30 to 7.00
29,COc1c(C)ccc(Nc2nc(=O)c(OC)cn2Cc2cc(F)cc(F)c2)c1C [Compound I-0540],> 8.00

# Same assay, conditions: antagonistic activity for the human P2X7 receptor; read-out: IC50
row,SMILES,pIC50
1,COc1cn(Cc2cc(F)c(F)c(F)c2)c(Nc2cc3c(cc2C)OCC3)nc1=O [Compound I-0866],> 8.00
2,COc1cn(Cc2cc(F)c(F)c(F)c2)c(Nc2ccc(OC(F)(F)F)cc2C)nc1=O [Compound I-0596],7.00 to 8.00
3,CCc1cc(Cl)ccc1Nc1nc(=O)c(OC)cn1Cc1cc(F)cc(Cl)c1 [Compound I-0611],7.00 to 8.00
4,CCOc1ccc(C)c(Nc2nc(=O)c(F)cn2Cc2cc(F)cc(F)c2)c1 [Compound I-1002],7.00 to 8.00
5,CCOc1cc(Nc2nc(=O)c(OC)cn2Cc2ccc(F)c(F)c2)c(C)cc1C [Compound I-0793],> 8.00
6,COc1cn(Cc2cc(F)cc(F)c2)c(Nc2cccc3c2ccc(=O)n3C)nc1=O [Compound I-0882],6.00 to 6.30
7,Cc1c(Nc2nc(=O)c(F)cn2Cc2cc(F)cc(F)c2)ccc2[nH]ccc12 [Compound I-1119],> 8.00
8,Cc1cc(Cl)ccc1Nc1nc(=O)c(F)cn1Cc1cc(F)c(F)c(F)c1 [Compound I-1192],> 8.00
9,CCOc1cc(Nc2nc(=O)c(F)cn2Cc2cc(F)c(F)c(F)c2)c(C)cc1F [Compound I-1030],> 8.00
10,COc1cc(F)c(Nc2nc(=O)c(C)cn2Cc2cc(F)c(F)c(F)c2)cc1OC [Compound I-1133],7.00 to 8.00
11,COc1cn(Cc2cc(F)c(F)c(F)c2)c(Nc2cc(N3CCOCC3)ccc2C)nc1=O [Compound I-0931],7.00 to 8.00
12,COc1cn(Cc2ccccc2)c(Nc2ccc3ncsc3c2C)nc1=O [Compound I-0855],7.00 to 8.00
13,Cc1cc2cc(Nc3nc(=O)c(F)cn3Cc3cc(F)c(F)c(F)c3)c(C)cc2[nH]1 [Compound I-1054],> 8.00
14,COc1cn(Cc2cc(F)cc(Cl)c2)c(Nc2ccc(N3CCOCC3)cc2C)nc1=O [Compound I-0612],6.30 to 7.00
15,CN1CCc2c(cccc2Nc2nc(=O)c(F)cn2Cc2cc(F)c(F)c(F)c2)C1 [Compound I-1107],7.00 to 8.00
16,COc1cn(Cc2ccc(F)c(Cl)c2)c(Nc2cc(OC(F)(F)F)ccc2C)nc1=O [Compound I-0692],7.00 to 8.00
17,Cc1nc2cc(C)c(Nc3nc(=O)c(C)nn3Cc3cc(F)cc(F)c3)cc2s1 [Compound I-1260],7.00 to 8.00
18,COc1ccc(Cl)c(Nc2nc(=O)c(F)cn2Cc2cc(F)c(F)c(F)c2)c1 [Compound I-1196],> 8.00
19,COCc1ccc(C)c(Nc2nc(=O)c(F)cn2Cc2ccc(F)c(Cl)c2)c1 [Compound I-1085],> 8.00
20,Cc1nc2cc(C)c(Nc3nc(=O)c(F)cn3Cc3ccc(F)c(Cl)c3)cc2s1 [Compound I-0778],> 8.00

row,SMILES,pIC50
1,Cc1cc(CO)ccc1Nc1nc(=O)c(F)cn1Cc1cc(F)c(F)c(F)c1 [Compound I-1236],> 8.00
2,Cc1ccc(-c2cscn2)cc1Nc1nc(=O)c(F)cn1Cc1cc(F)cc(F)c1 [Compound I-0867],> 8.00
3,O=c1nc(Nc2cccc3c(O)cccc23)n(Cc2cc(F)c(F)c(F)c2)cc1F [Compound I-1105],> 8.00
4,Cc1ccc(N2CCCC2=O)cc1Nc1nc(=O)c(F)cn1Cc1cc(F)cc(F)c1 [Compound I-0700],> 8.00
5,COc1cc(C)c(Nc2c(Cl)c(=O)c(OC)cn2Cc2ccc(F)c(Cl)c2)cc1C [Compound I-0964],6.30 to 7.00
6,COc1ccc(C)c(Nc2nc(=O)c(F)cn2Cc2ccc(F)c(F)c2)c1 [Compound I-1068],> 8.00
7,Cc1cc(Nc2nc(=O)c(F)cn2Cc2cc(F)c(F)c(F)c2)c(Cl)cc1F [Compound I-1225],> 8.00
8,CCc1cc2c(cc1Nc1nc(=O)c(OC)cn1Cc1ccccc1)OCCO2 [Compound I-0796],7.00 to 8.00
9,COc1cn(Cc2ccc(F)c(Cl)c2)c(Nc2cccc3c(=O)n(C)ccc23)nc1=O [Compound I-0902],7.00 to 8.00
10,Cc1c(F)cccc1Nc1nc(=O)c(F)cn1Cc1ccc(F)c(Cl)c1 [Compound I-1213],> 8.00
11,COc1cn(Cc2ccc(F)cc2)c(Nc2cccc(C)c2Cl)nc1=O [Compound I-0662],7.00 to 8.00
12,COc1cn(Cc2ccccc2)c(Nc2ccc(Cl)cc2C)cc1=O [Compound I-0950],6.30 to 7.00
13,Cc1ccc(-c2ncco2)cc1Nc1nc(=O)c(F)cn1Cc1cc(F)cc(F)c1 [Compound I-0851],> 8.00
14,Cc1nc2cc(Cl)c(Nc3nc(=O)c(F)cn3Cc3cc(F)c(F)c(F)c3)cc2s1 [Compound I-1182],> 8.00
15,COc1ccc(Nc2nc(=O)c(F)cn2Cc2cc(F)c(F)c(F)c2)c(OC)c1C [Compound I-1243],> 8.00
16,COc1cn(Cc2ccccc2)c(Nc2cc(Oc3ccccn3)ccc2C)nc1=O [Compound I-0895],7.00 to 8.00
17,COCc1cn(Cc2cc(F)c(F)c(F)c2)c(Nc2cc(OCCO)ccc2C)nc1=O [Compound I-1125],7.00 to 8.00
18,COc1ccc(Nc2nc(=O)c(F)cn2Cc2ccc(F)c(Cl)c2)c(C)c1 [Compound I-0840],> 8.00
19,Cc1nc2[nH]ccc2cc1Nc1nc(=O)c(F)cn1Cc1ccc(F)c(Cl)c1 [Compound I-1091],7.00 to 8.00
